Assay results reported in patent US12606543B2, “Indole derivatives as serotonergic agents useful for the treatment of disorders related thereto” (priority 2023, dated 2026).

Experiments:
Type in all cases: in vitro ADME
[1] = Liver microsomes stability, mouse; settings: for T1/2: <4.51 if % remaining at 30 min below 1%
Method: (§1) The objective of this study was to estimate in vitro metabolic stability of exemplary compounds of Formula (I) or a pharmaceutically acceptable salt, solvate, and/or prodrug thereof in pooled human, male rat, and male mouse liver microsomes. The concentrations of compounds in reaction systems were evaluated by LC-MS/MS for estimating the stability in pooled human, male rat, and male mouse liver microsomes. The in vitro intrinsic clearances of test compounds were determined as well.
(§2) A master solution in the “Incubation Plate” containing phosphate buffer, ultra-pure H2O, MgCl2 solution and liver microsomes was made according to Table 33. The mixture was pre-warmed at 37° C. water bath for 5 minutes.
(§3) 40 μL of 10 mM nicotinamide adenine dinucleotide phosphate (NADPH) solution was added to each well. The final concentration of NADPH was 1 mM. The negative control samples were prepared by replacing NADPH with 40 μL of ultra-pure H2O. Samples were prepared in duplicate. Negative controls were prepared in singlet.
(§4) The reaction was started with the addition of 4 μL of 200 μM exemplary test compounds of the disclosure or control compounds to each master solution to get the final concentration of 2 μM. This study was performed in duplicate.
(§5) Aliquots of 50 μL were taken from the reaction solution at 0, 15, 30, 45, and 60 minutes. The reaction solutions were stopped by the addition of 4 volumes of cold methanol with IS (100 nM alprazolam, 200 nM imipramine, 200 nM labetalol, and 2 μM ketoprofen). Samples were centrifuged at 3,220 g for 40 minutes. Aliquot of 90 μL of the supernatant was mixed with 90 μL of ultra-pure H2O and then was used for LC-MS/MS analysis.
(§6) LC/MS analysis was performed for all samples from this study using a Shimadzu liquid chromatograph separation system equipped with degasser DGU-20A5R; solvent delivery unit LC-30AD; system controller SIL-30AC; column oven CTO-30A; CTC Analytics HTC PAL System. Mass spectrometric analysis was performed using a Triple Quad™ 5500 instrument.
(§7) All calculations were carried out using Microsoft Excel. Peak area ratios of test compound to internal standard (listed in the below table) were determined from extracted ion chromatograms.
(§8) All calculations were carried out using Microsoft Excel. Peak areas were determined from extracted ion chromatograms. The slope value, k, was determined by linear regression of the natural logarithm of the remaining percentage of the parent drug vs. incubation time curve.
(§9) The in vitro half-life (in vitro t1/2) was determined from the slope value:
(§10) Conversion of the in vitro t1/2 (min) into the in vitro intrinsic clearance (in vitro CLint, in μL/min/mg proteins) was done using the following equation (mean of duplicate determinations): […]
(§11) The objective of this study was to estimate in vitro metabolic stability of exemplary compounds of Formula (I) or a pharmaceutically acceptable salt, solvate and/or prodrug thereof in pooled human, male rat and male mouse liver microsomes. The concentrations of compounds in reaction systems were evaluated by LC-MS/MS for estimating the stability in pooled human, male rat and male mouse liver microsomes. The in vitro intrinsic clearances of test compounds were determined as well.
(§12) A master solution in the “Incubation Plate” containing phosphate buffer, ultra-pure H2O, MgCl2 solution and liver microsomes was made according to Table 67. The mixture was pre-warmed at 37° C. water bath for 5 minutes.
(§13) 40 μL of 10 mM NADPH solution was added to each well. The final concentration of NADPH was 1 mM. The negative control samples were prepared by replacing NADPH with 40 μL of ultra-pure H2O. Samples were prepared in duplicate. Negative controls were prepared in singlet
(§14) Aliquots of 50 μL were taken from the reaction solution at 0, 15, 30, 45 and 60 minutes. The reaction solutions were stopped by the addition of 4 volumes of cold methanol with IS (100 nM alprazolam, 200 nM imipramine, 200 nM labetalol and 2 μM ketoprofen). […]

[2] = Liver microsomes stability, rat; settings: for CLint / T1/2: 2 μM, 0.5 mg/mL, NADPH
Method: as §1, §2, §3, §4, §5, §6, §7, §8, §9, §10, §11, §12, §13, §14

[3] = Liver microsomes stability, human
Method: as §1, §2, §3, §4, §5, §6, §7, §8, §9, §10, §11, §12, §13
Aliquots of 50 μL were taken from the reaction solution at 0, 15, 30, 45 and 60 minutes. The reaction solutions were stopped by the addition of 4 volumes of cold methanol with IS (100 nM alprazolam, 200 nM imipramine, 200 nM labetalol and 2 μM ketoprofen).

[4] = Mouse liver microsomes, 2 μM, 0.5 mg/mL, NADPH
[5] = mouse liver microsomes, With Cofactors, 0 min
[6] = mouse liver microsomes, With Cofactors, 30 min
[7] = mouse liver microsomes, With Cofactors, 60 min
[8] = mouse liver microsomes, Without Cofactors, 0 min
[9] = mouse liver microsomes, Without Cofactors, 30 min
[10] = mouse liver microsomes, Without Cofactors, 60 min
[11] = Rat liver microsomes, With Cofactors, 0 min
[12] = Rat liver microsomes, With Cofactors, 30 min
[13] = Rat liver microsomes, With Cofactors, 60 min
[14] = Rat liver microsomes, Without Cofactors, 0 min
[15] = Rat liver microsomes, Without Cofactors, 30 min
[16] = Rat liver microsomes, Without Cofactors, 60 min
[17] = rat liver microsomes, With Cofactors, 0 min
[18] = rat liver microsomes, With Cofactors, 30 min
[19] = rat liver microsomes, With Cofactors, 60 min
[20] = rat liver microsomes, Without Cofactors, 0 min
[21] = rat liver microsomes, Without Cofactors, 30 min
[22] = rat liver microsomes, Without Cofactors, 60 min
[23] = Human liver microsomes, 2 μM, 0.5 mg/mL, NADPH
[24] = human liver microsomes, With Cofactors, 0 min
[25] = human liver microsomes, With Cofactors, 30 min
[26] = human liver microsomes, With Cofactors, 60 min
[27] = human liver microsomes, Without Cofactors, 0 min
[28] = human liver microsomes, Without Cofactors, 30 min
[29] = human liver microsomes, Without Cofactors, 60 min

SMILES: COc1ccc2[nH]cc(CCN(C)C)c2c1 [5-MeO-DMT]
- Predicted hepatic CL ([1]; Mouse liver microsomes): 54.19 mL/min/kg
- Scaled-up CLint ([1]; Mouse liver microsomes): 136.21 mL/min/kg
- T1/2 [1, 4]: 44.52 min
- CLint ([1]; Mouse liver microsomes, 2 μM, 0.5 mg/mL, NADPH, >307.01 if % remaining at 30 min below 1%): 31.13 μL/min/mg protein
- Remaining Percentage [1, 5]: 100.00%
- Remaining Percentage (%) 0 min [1, 5]: 100.00%
- Remaining Percentage [1, 6]: 61.84%
- Remaining Percentage (%) 30 min [1, 6]: 61.84%
- Remaining Percentage [1, 7]: 39.30%
- Remaining Percentage (%) 60 min [1, 7]: 39.30%
- Remaining Percentage [1, 8]: 100.00%
- Remaining Percentage (%) 0 min [1, 8]: 100.00%
- Remaining Percentage [1, 9]: 104.76%
- Remaining Percentage (%) 30 min [1, 9]: 104.76%
- Remaining Percentage [1, 10]: 95.24%
- Remaining Percentage (%) 60 min [1, 10]: 95.24%
- Predicted hepatic CL ([2]; Rat liver microsomes): 49.02 mL/min/kg
- Scaled-up CLint ([2]; Rat liver microsomes): 437.56 mL/min/kg
- CLint ([2]; Rat liver microsomes): 244.17 μL/min/mg protein
- T1/2 ([2]; Rat liver microsomes): 5.68 min
- Remaining Percentage (%) 0 min [2, 11]: 100.00%
- Remaining Percentage (%) 30 min [2, 12]: 2.57%
- Remaining Percentage (%) 60 min [2, 13]: 0.36%
- Remaining Percentage (%) 0 min [2, 14]: 100.00%
- Remaining Percentage (%) 30 min [2, 15]: 49.55%
- Remaining Percentage (%) 60 min [2, 16]: 23.82%
- Remaining Percentage [2, 17]: 100.00%
- Remaining Percentage [2, 18]: 2.57%
- Remaining Percentage [2, 19]: 0.36%
- Remaining Percentage [2, 20]: 100.00%
- Remaining Percentage [2, 21]: 49.55%
- Remaining Percentage [2, 22]: 23.82%
- Predicted hepatic CL ([3]; Human liver microsomes): 18.09 mL/min/kg
- Scaled-up CLint ([3]; Human liver microsomes): 143.22 mL/min/kg
- CLint [3, 23]: 114.19 μL/min/mg protein
- T1/2 [3, 23]: 12.14 min
- Remaining Percentage [3, 24]: 100.00%
- Remaining Percentage (%) 0 min [3, 24]: 100.00%
- Remaining Percentage [3, 25]: 19.24%
- Remaining Percentage (%) 30 min [3, 25]: 19.24%
- Remaining Percentage [3, 26]: 3.25%
- Remaining Percentage (%) 60 min [3, 26]: 3.25%
- Remaining Percentage [3, 27]: 100.00%
- Remaining Percentage (%) 0 min [3, 27]: 100.00%
- Remaining Percentage [3, 28]: 18.58%
- Remaining Percentage (%) 30 min [3, 28]: 18.58%
- Remaining Percentage [3, 29]: 3.00%
- Remaining Percentage (%) 60 min [3, 29]: 3.00%

SMILES: O=C(O)Cc1ccccc1Nc1c(Cl)cccc1Cl [Diclofenac]
- Predicted hepatic CL ([1]; Mouse liver microsomes): 54.78 mL/min/kg
- Scaled-up CLint ([1]; Mouse liver microsomes): 140.00 mL/min/kg
- T1/2 [1, 4]: 43.31 min
- Predicted hepatic CL ([1]; mouse liver microsomes): 56.11 mL/min/kg
- Scaled-up CLint ([1]; mouse liver microsomes): 149.03 mL/min/kg
- CLint ([1]; mouse liver microsomes, 2 μM compound, 0.5 mg/mL microsomes): 34.06 μL/min/mg protein
- Remaining Percentage [1, 5]: 100.00%
- Remaining Percentage (%) 0 min [1, 5]: 100.00%
- Remaining Percentage [1, 6]: 45.55%
- Remaining Percentage (%) 30 min [1, 6]: 45.55%
- Remaining Percentage [1, 7]: 33.71%
- Remaining Percentage (%) 60 min [1, 7]: 33.71%
- Remaining Percentage [1, 8]: 100.00%
- Remaining Percentage (%) 0 min [1, 8]: 100.00%
- Remaining Percentage [1, 9]: 89.49%
- Remaining Percentage (%) 30 min [1, 9]: 89.49%
- Remaining Percentage [1, 10]: 96.59%
- Remaining Percentage (%) 60 min [1, 10]: 96.59%
- Predicted hepatic CL ([2]; Rat liver microsomes): 41.25 mL/min/kg
- Scaled-up CLint ([2]; Rat liver microsomes): 163.16 mL/min/kg
- CLint ([2]; Rat liver microsomes): 91.05 μL/min/mg protein
- T1/2 ([2]; Rat liver microsomes): 15.22 min
- Remaining Percentage (%) 0 min [2, 11]: 100.00%
- Remaining Percentage (%) 30 min [2, 12]: 11.86%
- Remaining Percentage (%) 60 min [2, 13]: 6.35%
- Remaining Percentage (%) 0 min [2, 14]: 100.00%
- Remaining Percentage (%) 30 min [2, 15]: 102.19%
- Remaining Percentage (%) 60 min [2, 16]: 100.63%
- Predicted hepatic CL ([2]; rat liver microsomes): 41.22 mL/min/kg
- Scaled-up CLint ([2]; rat liver microsomes): 162.69 mL/min/kg
- Remaining Percentage [2, 17]: 100.00%
- Remaining Percentage [2, 18]: 11.86%
- Remaining Percentage [2, 19]: 6.35%
- Remaining Percentage [2, 20]: 100.00%
- Remaining Percentage [2, 21]: 102.19%
- Remaining Percentage [2, 22]: 100.63%
- Predicted hepatic CL ([3]; Human liver microsomes): 18.35 mL/min/kg
- Scaled-up CLint ([3]; Human liver microsomes): 161.94 mL/min/kg
- Predicted hepatic CL ([3]; human liver microsomes): 18.38 mL/min/kg
- Scaled-up CLint ([3]; human liver microsomes): 164.18 mL/min/kg
- Remaining Percentage [3, 24]: 100.00%
- Remaining Percentage (%) 0 min [3, 24]: 100.00%
- Remaining Percentage [3, 25]: 5.01%
- Remaining Percentage (%) 30 min [3, 25]: 5.01%
- Remaining Percentage [3, 26]: 1.77%
- Remaining Percentage (%) 60 min [3, 26]: 1.77%
- Remaining Percentage [3, 27]: 100.00%
- Remaining Percentage (%) 0 min [3, 27]: 100.00%
- Remaining Percentage [3, 28]: 112.67%
- Remaining Percentage (%) 30 min [3, 28]: 112.67%
- Remaining Percentage [3, 29]: 96.67%
- Remaining Percentage (%) 60 min [3, 29]: 96.67%
